The target of data set [1] is full-length human tau protein (htau40) and truncated tau (295-390, dGA) in 3T6 mouse cells (Homo sapiens, UniProt P10636). Put plainly: Cell-based tau aggregation assay.
The target in data set [2] is T1, truncated tau (amino acids 297-391) in solution binding to solid-phase bound truncated tau (residues 297-390) (Homo sapiens, UniProt P10636).
T1 construct: made in house
The experiment in a line: Solid phase assay for tau aggregation (tau-tau binding, B50). The settings on record: concentration at which tau-tau binding is decreased by 50%; mean ± SE. The text has this:
The tau-tau aggregation assay uses purified recombinant tau fragments in a solid-phase immunoassay. Methods are described in detail in e.g. WO 96/30766. Briefly, the assay measures the binding of truncated tau (amino acids 297-391) in solution to solid-phase bound truncated tau (residues 297-390). Binding of the former is detected with the antibody mAb 423, which specifically recognises peptides containing a C-terminal Glu-391 residue. The Tau complex formed in vitro is similar to the aggregated complex that forms in Alzheimer's disease as a consequence of the stability of the pathological Tau-Tau binding interaction through a 94/95-amino acid repeat domain (residues 297-390), found in the proteolytically stable core of the paired helical filament.
The B50 value (expressed as mean±SE) is determined as the concentration of compound at which tau-tau binding is decreased by 50%.

Data set [3] can be described thus: Solubility of LMT salts in aqueous HCl solutions at 37° C. Type of data set: physicochemical. The settings on record: lower limit complete dissolution, upper limit saturation. The protocol:
Two aqueous solutions (pH 2.00 and 3.01 at 21.4° C.) were prepared by carefully adding HCl (5 M) to deionised water. In each experiment a 5 ml aliquot of one of the aforementioned solutions was heated to 37° C. […] This step was repeated until no further dissolution took place.

The next data set relates to female Wistar rats. Put plainly: 14 day oral administration to rats: toxicology and neutrophil response. Type of data set: in vivo. To be noted: for Neutrophils (total neutrophils as percentage of total white cells) / Dose-related deaths / Early neutrophils (frequency of presence of immature neutrophils per animal group): 14 days oral; for Neutrophils (total neutrophils as percentage of total white cells): 95 mg MT/kg/day Days 1-10, 60 mg MT/kg/day Days 11-14; for Dose-related deaths: animal numbers per group of 8 rats; for Early neutrophils (frequency of presence of immature neutrophils per animal group): animals per group of 8. The text has this: Table: Neutrophil response in rats following 14 day oral administration of different salt forms of LMT.

In another data set the test system is rat. Put plainly: 6-month study of LMT.2HBr in the rat. Type of data set: in vivo. To be noted: high dose 45 mg MT/kg/day. The text has this: The decreased neutrophils or neutropaenia observed after LMT.2HBr although reversible would make patients more susceptible to bacterial infections as their primary role is in destruction of bacteria.
The next data set deals with rats. Put plainly: Studies on the hemopoietic system (methemoglobinemia), rat. Type of data set: in vivo.
The subject of data set [4] is rat, stomach (non glandular). Put plainly: Gastric irritation: 28-day rat study with MTC or LMT.2HBr. Type of data set: in vivo. Details: key to Gastritis, grade 3 (moderate): incidence / Inflammatory cell infiltration, grade 1 (minimal): incidence / Gastritis, grade 1 (minimal): incidence / Gastritis, grade 2 (slight): incidence / Gastritis, grade 3: incidence predicted with 10 per group / Gastritis, grade 1: incidence predicted with 10 per group / Gastritis, grade 2: incidence predicted with 10 per group: “—” = finding not present; 1 = minimal; 2 = slight; 3 = moderate; 4 = moderately severe; 5 = severe. The settings on record: 90 mg/kg/day; for Gastritis, total incidence predicted with 10 per group: number of animals of 10; for Gastritis, grade 1: incidence predicted with 10 per group / Gastritis, grade 2: incidence predicted with 10 per group / Gastritis, grade 3: incidence predicted with 10 per group: scaled from 5 to 10 examined.

For a further data set, the system named is minipigs. The experiment in a line: Studies on the hemopoietic system (methemoglobinemia), minipig. Type of data set: in vivo. The protocol: Studies on the hemopoietic system were performed in rat, monkey and minipig.
[5] abbreviates: aqueous HCl solution pH 2.00 (21.4° C.).
Where [6] appears, read: aqueous HCl solution pH 3.01 (21.4° C.).
[7] abbreviates: female rats, 28-day, terminal kill, 5 examined, cell = number of animals.
Where [8] appears, read: female rats, cell = number of animals.
[9] abbreviates: male rats, 28-day, terminal kill, 5 examined, cell = number of animals.
Where [10] appears, read: male rats, cell = number of animals.

Marks after values point to notes of the source that are not given here.

T1 sequence (P10636 614-708): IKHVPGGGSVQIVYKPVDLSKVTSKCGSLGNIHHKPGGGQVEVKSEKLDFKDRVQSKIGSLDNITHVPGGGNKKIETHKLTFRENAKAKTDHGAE
T1 sequence (P10636 614-707): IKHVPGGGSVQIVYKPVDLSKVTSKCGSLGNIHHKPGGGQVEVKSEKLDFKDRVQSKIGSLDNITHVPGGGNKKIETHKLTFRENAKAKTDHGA

As for `CN(C)c1ccc2c(c1)Sc1cc(N(C)C)ccc1N2.Cl.Cl` [LMT.2HCl, N,N,N′,N′-tetramethyl-10H-phenothiazine-3,7-diaminium dichloride], the “THx, therapeutic index (THx = LD50/EC50)” value in data set [1] is 102. The IC50 in data set [2] turned out to be 361 ± 38.2 µM. Moreover, the “Solubility g/5 ml (37° C.)” value in data set [3] (setting [5]) was 4.404-4.961 g/5 ml. Also, in data set [3] (setting [6]), the “Solubility g/5 ml (37° C.)” value is reported as 4.978-6.029 g/5 ml. Also, the “Neutropaenia in prepared blood smears (mature neutrophils)” value in the data set on female Wistar rats (14 days) is recorded as “no decrease”. In the data set with female Wistar rats, the “Neutrophils (total neutrophils as percentage of total white cells)” value is 19.90%, the Dose-related deaths is 0/8 and the “Early neutrophils (frequency of presence of immature neutrophils per animal group)” value is recorded as 2/8.

With `CS(=O)(=O)O` [MSA, methansulfonic acid, reference compound], in data set [2], the half-maximal inhibitory concentration (IC50) was greater than 500 µM.

Regarding `O=S(=O)(O)CCS(=O)(=O)O` [EDSA, ethanedisulfonic acid, reference compound], in data set [2], the IC50 was greater than 500 µM.

As for `CN(C)c1ccc2c(c1)Sc1cc(N(C)C)ccc1N2` [LMT.2HBr, N,N,N′,N′-tetramethyl-10H-phenothiazine-3,7-diaminium di(bromide)], in data set [1] (listed as LMT•2HBr), the “THx, therapeutic index (THx = LD50/EC50)” value is on record as 92 and the “EC50 (μM)” value is on record as 0.66 ± 0.15 (n = 8) μM. In addition, the IC50 in data set [2] turned out to be 472 ± 27.6 µM. In data set [3] (setting [5]), the “Solubility g/5 ml (37° C.)” value was 4.822-5.096 g/5 ml. The “Solubility g/5 ml (37° C.)” value in data set [3] (setting [6]) was 4.726-5.236 g/5 ml. Also, the “Mature neutrophils and granulocytes in the bone marrow” value in the data set on rat is “Decreased numbers of mature neutrophils and granulocytes”. Besides, in the data set on rats, the “Lowest dose at which methemoglobinemia was observed” value is 15 mg MT/kg/day. Besides, in the data set with female Wistar rats (14 days), the “Neutropaenia in prepared blood smears (mature neutrophils)” value is reported as “marked depletion of mature neutrophils”, the “Numbers of neutrophilic granulocytes in the bone marrow” value is recorded as “considerably greater” and the Treatment-related deaths result is reported as “Treatment-related deaths occurred”. In the data set on female Wistar rats, the “Neutrophils (total neutrophils as percentage of total white cells)” value came to 3.00%*, the Dose-related deaths is 2/8 and the “Early neutrophils (frequency of presence of immature neutrophils per animal group)” value is 8/8. Moreover, in data set [4] (setting [7]), the “Gastritis, grade 1 (minimal): incidence” value is given as “—”; the “Gastritis, grade 2 (slight): incidence” value is 1; the “Gastritis, grade 3 (moderate): incidence” value was 1; the “Inflammatory cell infiltration, grade 1 (minimal): incidence” value is “—”. Moreover, the “Gastritis, total incidence predicted with 10 per group” value in data set [4] (female rats) is on record as 4. In data set [4] (setting [8]), the “Gastritis, grade 1: incidence predicted with 10 per group” value is recorded as “—”; the “Gastritis, grade 2: incidence predicted with 10 per group” value was 2; the “Gastritis, grade 3: incidence predicted with 10 per group” value is recorded as 2. In data set [4] (setting [9]), the “Gastritis, grade 1 (minimal): incidence” value is given as 1; the “Gastritis, grade 2 (slight): incidence” value is recorded as “—”; the “Gastritis, grade 3 (moderate): incidence” value is given as 1. The “Gastritis, total incidence predicted with 10 per group” value in data set [4] (male rats) is 4. In data set [4] (setting [10]), the “Gastritis, grade 1: incidence predicted with 10 per group” value is 2; the “Gastritis, grade 2: incidence predicted with 10 per group” value is “—”; the “Gastritis, grade 3: incidence predicted with 10 per group” value was 2. In the data set on minipigs, the “Lowest dose at which methemoglobinemia was observed” value is given as 10 mg MT/kg/day.

For `CN(C)c1ccc2c(c1)Sc1cc(N(C)C)ccc1N2` [LMT.EDSA, N,N,N′,N′-Tetramethyl-10H-phenothiazine-3,7-diaminium ethanedisulfonate], in data set [1] (listed as LMT•EDSA), the “THx, therapeutic index (THx = LD50/EC50)” value came out at 115 and the “EC50 (μM)” value is listed as 0.68 ± 0.32 (n = 4) μM. Also, in data set [2], the IC50 came to 400 ± 17.6 µM.

As for `CN(C)c1ccc2c(c1)Sc1cc(N(C)C)ccc1N2` [LMT.NDSA, N,N,N′,N′-Tetramethyl-10H-phenothiazine-3,7-diaminium naphthalenedisulfonate], in data set [1] (listed as LMT•NDSA), the “THx, therapeutic index (THx = LD50/EC50)” value is given as 108 and the “EC50 (μM)” value is given as 0.71 ± 0.34 (n = 4) μM. In data set [2], this compound displayed a 50% inhibitory concentration (IC50) of 334 ± 63.2 µM.

Consider `CN(C)c1ccc2c(c1)Sc1cc(N(C)C)ccc1N2` [LMT.2TsOH, N,N,N′,N′-Tetramethyl-10H-phenothiazine-3,7-diaminium bis(p-toluenesulfonate)], for which the “THx, therapeutic index (THx = LD50/EC50)” value in data set [1] (bis(p-toluenesulfonate)) is reported as 140. The same compound had an IC50 in data set [2] of 296 ± 37.9 µM.

In the case of `CN(C)c1ccc2c(c1)Sc1cc(N(C)C)ccc1N2` [LMT.2EsOH, N,N,N′,N′-Tetramethyl-10H-phenothiazine-3,7-diaminium bis(ethanesulfonate)], in data set [1] (listed as LMT•2EsOH), the “THx, therapeutic index (THx = LD50/EC50)” value amounted to 100 and the “EC50 (μM)” value was 0.52 ± 0.13 (n = 3) μM. For the same compound, the IC50 in data set [2] was 297 ± 75.1 µM.

One may read the IC50 as the concentration that inhibits the measured activity by half.

These data come from patent US10864216B2, “Phenothiazine diaminium salts and their use” (WisTa Laboratories Ltd., priority 2011, dated 2020).
